Data set [1] deals with [^3 H]Leu-Leu-OMe uptake by PBL (facilitated transport). As to the kind of experiment: Competitive inhibition of [3H]Leu-Leu-OMe uptake. Type of data set: cell-based, human. To be noted: Homo sapiens; unlabeled compound 250 microM; [3H]Leu-Leu-OMe 10 microM (Table 6). On the procedure: Human peripheral blood lymphocytes (PBL) were incubated in the presence of [^3 H]labeled Leu-Leu-OMe at 22° C. for varying lengths of time. The incubation mixture was then centrifuged through silicone oil to separate the cells from any unbound or non-internalized [^3 HLeu-Leu-OMe. […] At 37° C., levels of [^3 H]Leu-Leu-OMe accumulation by PBL were increased above those seen at 22° C. (see Table 4).

The subject of data set [2] is splenic NK function (YAC-1 tumor targets). As to the kind of experiment: Spleen cell NK function against YAC-1 after tail-vein injection. The data set is classed as in vivo, C3H/HeJ mice. As to the method:
(§1) Leu-Leu-OMe or Leu-Phe-OMe were suspended in PBS, pH 7.4. Then individual C3H/HeJ mice (25 gram size) were administered by tail-vein injection either 2.5×10^-5 moles (6.5 mg) of Leu-Leu-OMe, 2.5×10^-5 moles (7.1 mg) Leu-Phe-OMe, or an equal volume of the PBS diluent, this dose being about 1×10^-3 moles per kg. […] Subsequent to this quiescent period no difference in activity or appearance in the mice was noted. Two hours post-injection, the mice were sacrificed and their spleen cells were assayed for NK function in a standard 4 hour assay against YAC-1 tumor targets. In all mice, total cell recovery ranged […] spleen cells per animal. […] Thus, Leu-Leu-OMe or Leu-Phe-OMe caused a greater than 75% decrease in splenic lytic activity against YAC-1 tumor targets.

Data set [3] deals with natural killer cells (NK). As to the kind of experiment: NK function: lysis of K562 target cells (51Cr release) after preincubation of lymphocytes with compound. Particulars: for NK toxicity / effect on NK function, in words: lymphocytes exposed 15 minutes at room temperature (FIG. 4, FIG. 5).
Description: PBM were separated from heparinized venous blood of healthy donors by centrifugation over sodium diatrizoate-Ficoll gradients (Isolymph, Gallard-Schlesinger Chemical Mfg. Corp., Carle Place, N.Y.).
All cell exposures to the amino acids, dipeptides or their methyl esters were carried out by suspending cells in Dulbecco's phosphate buffered saline (PBS) and incubating them at room temperature with the reagent at the indicated concentration and time interval.
Percent of control cytotoxicity was calculated using the formula: [formula]
A short description of data set [4]: Activity and appearance of mice post-injection. To be noted: 15-30 minutes post-injection, about 1×10^-3 moles per kg tail-vein. Type of data set: in vivo, C3H/HeJ mice. On the procedure:
as §1

The nature of data set [5]: Generation of dipeptide methyl esters from amino acid methyl esters by MP or PMN (TLC). Type of data set: in vitro ADME, human. To be noted: equal concentrations of Leu-OMe, Val-OMe or Phe-OMe added. On the procedure: MP or PMN (prepared as in Example 1) at a concentration of 25×10^6 per ml were suspended in PBS and incubated with 25 mM Leu-OMe for 20 minutes at 22~C. Cell suspensions were then centrifuged at 1000 g for 10 minutes and the supernatants harvested and freeze-dried at -70~C., 100 millitorr atmospheric pressure. In some experiments, Leu-OMe-treated MP or PMN were sonicated to increase the yield of the reaction product. Samples were then extracted with methanol for application to thin layer chromatography (TLC) plates ([…]×20 cm^2, Analtech, Newark, Del.). Following development with chloroform/methanol/acetic acid (19 1:12.5 by volume), 1 cm bands were eluted with methanol, dried under nitrogen, and resuspended in 1 ml PBS. Mass spectra were obtained with a Finnegan Model 4021 automated EI/CI, GC/MS system coupled to an Incos data system. […]
In order to determine whether MP or PMN could generate the relevant dipeptide methyl esters from these amino acid methyl esters, TLC analysis of the supernatants of MP and PMN incubated with these compounds was carried out. […] However, when equal concentrations of Leu-OMe, Val-OMe, or Phe-OMe were added to MP or PMN, the concentrations of Val-Val-OMe generated were 50 to 80% of those found for Leu-Leu-OMe, while Phe-Phe-OMe was detected at only 10-30% of the levels of Leu-Leu-OMe. […]

Data set [6] concerns natural killer cells (NK). To be noted: previous experiments (Thiele et al. 1985); cited from earlier work.

Peptide text beside a SMILES is read from it.

On to `COC(=O)[C@H](Cc1ccccc1)NC(=O)[C@@H](N)CC(C)C` [Leu-Phe-OMe] (H-Leu-Phe-OMe), for which, in data set [1], 250 µM produced 72% inhibition. Besides, the “Percent lysis of target cells” value is given as 3.89% in data set [2] (E:T 25:1, 2.5×10^-5 moles per mouse tail-vein, 2 hours post-injection, Control 8.29); 4.68% in data set [2] (E:T 50:1, same dosing, Control 12.88); 6.91% in data set [2] (E:T 100:1, same dosing, Control 20.60); 11.91% in data set [2] (E:T 200:1, same dosing, Control 29.29). For the same molecule, the “decrease in splenic lytic activity against YAC-1 tumor targets” value in data set [2] (about 1×10^-3 moles per kg tail-vein) was “greater than 75%”. Also, the “NK Toxicity (LD50)” value in data set [3] (concentration which results in 50% loss of human NK function, PBL 15 minutes at 22° C.) is reported as 29 micro-M. In data set [3], the “NK toxicity / effect on NK function, in words” value is listed as “produced concentration-dependent ablation of NK function at concentrations comparable to those at which Leu-Leu-OMe was active”. Moreover, the “activity and appearance post-injection” value in data set [4] is “exhibited decreased activity and an apparent increase in sleep”.
For the molecule `COC(=O)[C@H](Cc1ccccc1)NC(=O)[C@@H](N)Cc1ccccc1` [Phe-Phe-OMe] (H-Phe-Phe-OMe), the “concentration generated by MP or PMN, relative to Leu-Leu-OMe” value in data set [5] is listed as 10-30%. In data set [3], the “NK toxicity / effect on NK function, in words” value is “less NK toxic than either Leu-Phe-OMe or Phe-Leu-OMe”.
As for `COC(=O)[C@@H](N)C(C)C` [Val-OMe], the “deletion of NK function from human PBM” value in data set [6] is “did not delete NK function from human PBM”.

Source of the values: US5304474A, “Hydrophobic peptide esters and amides” (Board of Regents, The University of Texas System, priority 1991, dated 1994).
